≈ marks a conversion by molar mass, not a printed value.
Columns and labels:
Skeletonema costatum = test: Aquatic toxicity testing; type: in vivo
[1] = Biodegradability in sea water; settings: after 28 days

NCCN1CCNC1=S [1-(2-aminoethyl)-2-imidazolidinethione] showed an EC50 (Skeletonema costatum) of 236 µg/mL (≈ 1620 µM) and a biodegradability [1] of 100%.

— US6013200A, “Low toxicity corrosion inhibitor” (Baker Hughes Incorporated, priority 1997, dated 2000)
